Measurements from patent publication US9452177B2, “Vitamin D compounds and methods for reducing ocular hypertension (OHT)” (Wisconsin Alumni Research Foundation, priority 2008, dated 2016).
Entries after “also recorded” stand apart in the source; their conditions may differ.

Legend:
[1] = Ocular inflammation by slit-lamp biomicroscopy; type: in vivo, cynomolgus monkeys (Macaca fascicularis); conditions: Example 1; 5 topical treatments, 5 μg (2MD 6 μg)
Procedure: The intraocular pressure (IOP) was determined with a “minified” Goldmann applanation tonometer [Kaufman, 1980] using HALF AND HALF™ creamer solution (Borden) as the tear film indicator [Croft, 1997] with the monkey lying prone in a head holder and the eyes positioned 4 to 8 cm above the heart. All monkeys were examined by slit-lamp before the first IOP measurement in each protocol. For each eye, two or three IOP measurements were averaged as a baseline.
On the 3th day, prior to the 5th treatment, baseline IOP, biomicroscopy and MAP were determined. Preliminary studies indicated an effect was observed after these treatments but not after a single treatment. Following the 5th dose, IOP was measured at 1, 2, 3, 4, 5, 6, 7, 8, 12 (if possible), 24, and sometimes 48 hr. Biomicroscopy was done at 1, 3, 6, 24 and sometimes 48 hr. MAP on day 3 (some protocols) was determined at 1, 2, 3, 4, 5, 6, 7, 8, 24 and sometimes 48 hr if possible. Blood samples after the 5th treatment were collected at 6, 24, and sometimes 48 hr. For some protocols, IOP was also measured prior to each treatment; MAP was measured prior to the morning treatment; blood was collected prior to the afternoon treatment. Subsequent screening protocols will not include the MAP and blood collections and will only measure IOP at baseline and prior to and for 1-6 hr after the 5th treatment.
Baseline pretreatment IOP was determined by Goldmann applanation tonometry [Kaufman, 1980] with […] used as a tear film indicator [Croft, 1997]. Two baseline IOP measurements were taken 5 minutes apart. Monkeys were then treated topically with 5 μl of 1,25-dihydroxyvitamin D3 (1,25-(OH)2D3) (0.1-5 μg) to one eye and vehicle (propylene glycol) to the opposite eye twice a day for 5 treatments total. […] IOP was also measured prior to the afternoon treatment. On the third day, IOP was measured prior to the morning treatment. Following the fifth treatment, IOP was measured hourly for 8 hours and, in some cases, also at 12, 24, and 48 hours. […]

[2] = tested on: monkey eyes; assay: Outflow facility by two-level constant pressure perfusion of the anterior chamber; type: in vivo, cynomolgus monkeys; conditions: for increase in outflow facilities, vitamin D treated eyes: combined n=8
Procedure: Ocular normotensive adult cynomolgus monkeys, of either sex, weighing 3-7 kg were anesthetized with i.m. ketamine HCl (3-25 mg/kg, supplemented with 1-10 mg/kg) for IOP, topical drop administration and aqueous humor flow measurements. All monkeys were free of any ocular abnormalities according to slit lamp biomicroscopy at the time measurements were taken. For outflow facility measurements, animals were given intravenous sodium pentobarbital (15 mg/kg, supplemented with 5-10 mg/kg) following i.m. ketamine induction.
Outflow facility was determined in pentobarbital-anesthetized monkeys [Gabelt, 2004] by two-level constant pressure perfusion of the anterior chamber with Bárány's perfusand [Bárány, 1964] (n=8). Four monkeys (group A) received the single bolus injection of 1 μl of 1 μg vitamin D 1,25-dihydroxyvitamin D3 (1,25-(OH)2D3) into the anterior chamber of one eye (Treated eye) or 1 μl of propylene glycol into the anterior chamber of fellow eye (Control eye). Four monkeys (group B) were treated topically with 5 μg of vitamin D in 5 μl of propylene glycol or vehicle (5 μl of propylene glycol) twice daily for two days.
Following baseline outflow facility measurements on the third day, the fifth treatment was administered as a single bolus injection of 1 μl of 1 μg vitamin D 1,25-dihydroxyvitamin D3 (1,25-(OH)2D3) into the anterior chamber of one eye (Treated eye) or 1 μl of propylene glycol into the anterior chamber of fellow eye (Control eye). Following injections, the treatment bolus was allowed to wash in for 5 min with flow from the reservoirs. Then the contents of the anterior chamber were mixed by blowing cold air on the cornea to create convection. Reservoirs were closed for 75 minutes, then reopened and outflow facility measured for 60-90 minutes. Data were averaged for the entire 60-90 minute period and for 30-minute intervals and then were compared to baseline and to the vehicle treated eyes. Ratios were compared by the two-tailed paired t-test for ratios different from 1.0.
Baseline outflow facilities were studied in two groups (A and B) of monkeys (Materials and Methods). Group A (n=4) was treated with single bolus intracameral injection of 1 μg vitamin D (1,25-(OH)2D3) in 1 μl propylene glycol in one eye and 1 μl vehicle, propylene glycol in the control eye (Table 2, A). Group B (n=4) was treated topically with 5 μg of vitamin D in 5 μl of propylene glycol or vehicle (5 μl of propylene glycol) twice daily for two days. Then, following baseline outflow facility measurements on the third day, the fifth treatment was administered as a single bolus injection of 1 μl of 1 μg vitamin D 1,25-dihydroxyvitamin D3 (1,25-(OH)2D3) into the anterior chamber of one eye (Treated eye) or 1 μl of propylene glycol into the anterior chamber of fellow eye (Control eye).

[3] = Combined data for Groups A and B, n=8
[4] = Group A, 1 μg intracameral, n=4
[5] = Group B, 5 μg topical (4 treatments) then 1 μg intracameral, n=4

Question: Which ocular inflammation [1] does the source give for `C=C1/C(=C\C=C2/CCC[C@]3(C)[C@@H]([C@H](C)CCCC(C)(C)O)CC[C@@H]23)C[C@@H](O)C[C@@H]1O` [1,25-(OH)2D3, 1α,25-dihydroxyvitamin D3] here?
Answer: no ocular inflammation at any time-point

Question: What about the “Cumulative 90 min outflow facility, Treated eye after Vitamin D” value (“Cumulative 90 min outflow facility” for short) [2, 3] of the same compound?
Answer: 0.44 ± 0.13 μl/min/mmHg

Question: And the “Outflow facility Vitamin D/Baseline, Treated/Control” value [2, 3]?
Answer: 0.94 ± 0.11

Question: What about the “Outflow facility ratio Treated/Control after Vitamin D” value [2, 3] of the same compound?
Answer: 0.87 ± 0.16

Question: What about the “Outflow facility Vitamin D/Baseline, Treated eye” value ([2]; Combined data for Groups A and B, n=8, *p<0.05 vs 1.0) of the same compound?
Answer: 1.59 ± 0.19*

Question: And the “Cumulative 90 min outflow facility” value [2, 4]?
Answer: 0.37 ± 0.07 μl/min/mmHg

Question: What about the “Outflow facility Vitamin D/Baseline, Treated eye” value [2, 4] of the same compound?
Answer: 1.80 ± 0.30

Question: And the “Outflow facility Vitamin D/Baseline, Treated/Control” value [2, 4]?
Answer: 1.04 ± 0.13

Question: What about the “Outflow facility ratio Treated/Control after Vitamin D” value [2, 4] of the same compound?
Answer: 0.82 ± 0.20

Question: What about the “Cumulative 90 min outflow facility” value [2, 5] of the same compound?
Answer: 0.51 ± 0.26 μl/min/mmHg

Question: And the “Outflow facility Vitamin D/Baseline, Treated eye” value [2, 5]?
Answer: 1.39 ± 0.45

Question: What about the “Outflow facility Vitamin D/Baseline, Treated/Control” value [2, 5] of the same compound?
Answer: 0.84 ± 0.18

Question: What about the “Outflow facility ratio Treated/Control after Vitamin D” value [2, 5] of the same compound?
Answer: 0.91 ± 0.27

Question: And the “increase in outflow facilities, vitamin D treated eyes” value (“increase … vitamin D treated eyes” for short) ([2]; at 60 min, significant)?
Answer: 60%

Question: What about the “increase … vitamin D treated eyes” value ([2]; at 90 min, significant) of the same compound?
Answer: 115%

Question: What about the “increase in outflow facilities over baseline, both eyes” value ([2]; at 90 min after the intracameral injections) of the same compound?
Answer: about 100%

Question: What about the “outflow facility, vitamin D versus vehicle treated eyes” value ([2]; cumulative 90 min, groups A and B and combined) of the same compound?
Answer: no significant differences were found neither between the vitamin D or vehicle treated eyes; also recorded: did not change either the aqueous humor flow or the outflow facilities

Question: And the “increase … vitamin D treated eyes” value ([2]; first 30 min after the bolus injection, non-significant)?
Answer: 10%
